Reference: patent publication US20200131196A1 (Mount Tam Therapeutics, Inc., priority 2017, published 2020)
Where two headings read alike, the source gives them in different places.

Tests used:
Type in all cases: cell-based, human
NCI-H510A = test: OncoPanel cell proliferation assay, NCI-H510A
Protocol: (§1) Cells were grown in RPMI 1640, 10% FBS, 2 mM L-alanyl-L-glutamine, 1 mM Na pyruvate, or a special medium. Cells were seeded into 384-well plates and incubated in a humidified atmosphere of 5% CO2 at 37° C. Compounds were added the day following cell seeding. At the same time, a time zero untreated cell plate was generated. After a 3-day incubation period, cells were fixed and stained to allow fluorescence imaging of nuclei. Compounds (1 mM stock solutions) were serially diluted in half-log steps from the highest test concentration ([…]), and assayed over 10 concentrations with a maximum assay concentration of 0.1% DMSO. Automated fluorescence microscopy was carried out using a Molecular Devices ImageXpress Micro XL high-content imager, and images were collected with a 4× objective. 16-bit TIFF images were acquired and analyzed with MetaXpress 5.1.0.41 software.
(§2) Cell proliferation was measured by the fluorescence intensity of an incorporated nuclear dye. The output is referred to as the relative cell count, where the measured nuclear intensity is transformed to percent of control (POC) using the following formula: […]
(§3) Cellular response parameters were calculated using nonlinear regression to a sigmoidal single-site dose response model:
(§4) EC50 is the test compound concentration at the curve inflection point or half the effective response (parameter C of the fitted curve solution). GI50 is the concentration needed to reduce the observed growth by half (midway between the curve maximum and the time zero value). “Cell Count Activity Area” is an estimate of the integrated area above the curve (Barretina, et al. The Cancer Cell Line Encyclopedia enables predictive modelling of anticancer drug sensitivity. Nature 483: 603-607). […] In rare instances, values <0 or >10 may be observed. […] Curve-fitting, calculations, and report generation was performed using a custom data reduction engine and MathIQ based software (AIM).

SW579 = test: OncoPanel cell proliferation assay, SW579
Protocol: as §1, §2, §3, §4

TF-1 = test: OncoPanel cell proliferation assay, TF-1
Protocol: as §1, §2, §3, §4

MES-SA = test: OncoPanel cell proliferation assay, MES-SA
Protocol: as §1, §2, §3, §4

SNU-C2B = test: OncoPanel cell proliferation assay, SNU-C2B
Protocol: as §1, §2, §3, §4

CRO-AP2 = test: OncoPanel cell proliferation assay, CRO-AP2
Protocol: as §1, §2, §3, §4

[1] = Homo sapiens, read-out: Cell Count EC50
[2] = Homo sapiens, read-out: Cell Count GI50
[3] = Homo sapiens, read-out: Cell Count IC50

CO[C@H]1C[C@@H]2CC[C@@H](C)[C@@](O)(O2)C(=O)C(=O)N2CCCC[C@H]2C(=O)O[C@H]([C@H](C)C[C@H]2C[C@H]3C[C@@H]2C[C@@H]3O)CC(=O)[C@H](C)/C=C(\C)[C@@H](O)[C@@H](OC)C(=O)[C@H](C)C[C@H](C)/C=C/C=C/C=C/1C [Formula II, C37-[(1R,2S,4R,5S)-5-hyhroxybicyclo[2.2.1]heptane] rapamycin]
Cell Count Activity Area (NCI-H510A): 2.57 | Relative cell count (%) Mean (NCI-H510A; 1.00E+00 microM): 91.4% | Relative cell count (%) Mean (NCI-H510A; 1.00E-01 microM): 84.2% | Relative cell count (%) Mean (NCI-H510A; 1.00E-02 microM): 99.6% | Relative cell count (%) Mean (NCI-H510A; 1.00E-03 microM): 92.3% | Relative cell count (%) Mean (NCI-H510A; 1.01E-04 microM): 102.2% | Relative cell count (%) Mean (NCI-H510A; 3.16E-01 microM): 88.0% | Relative cell count (%) Mean (NCI-H510A; 3.17E-02 microM): 90.4% | Relative cell count (%) Mean (NCI-H510A; 3.17E-03 microM): 95.4% | Relative cell count (%) Mean (NCI-H510A; 3.18E-04 microM): 101.6% | Relative cell count (%) Mean (NCI-H510A; 3.18E-05 microM): 129.0% | EC50 (NCI-H510A; Homo sapiens, NCl-H510A, Lung, Small cell lung cancer (SCLC), summary Table 5, read-out: EC50): 0.072 nM | EC50 (NCI-H510A; [1]): 0.0717 nM | GI50 (NCI-H510A; [2]): > 1000 nM | IC50 (NCI-H510A; [3]): > 1000 nM | Cell Count Activity Area (SW579): 4.51 | Relative cell count (%) Mean (SW579; 1.00E+00 microM): 43.1% | Relative cell count (%) Mean (SW579; 1.00E-01 microM): 43.4% | Relative cell count (%) Mean (SW579; 1.00E-02 microM): 51.1% | Relative cell count (%) Mean (SW579; 1.00E-03 microM): 64.1% | Relative cell count (%) Mean (SW579; 1.01E-04 microM): 82.8% | Relative cell count (%) Mean (SW579; 3.16E-01 microM): 40.8% | Relative cell count (%) Mean (SW579; 3.17E-02 microM): 49.9% | Relative cell count (%) Mean (SW579; 3.17E-03 microM): 50.2% | Relative cell count (%) Mean (SW579; 3.18E-04 microM): 66.2% | Relative cell count (%) Mean (SW579; 3.18E-05 microM): 86.0% | EC50 (SW579; [1]): 0.204 nM | GI50 (SW579; [2]): 1.06 nM | IC50 (SW579; [3]): 4.52 nM | Cell Count Activity Area (TF-1): 1.08 | Relative cell count (%) Mean (TF-1; 1.00E+00 microM): 80.8% | Relative cell count (%) Mean (TF-1; 1.00E-01 microM): 80.1% | Relative cell count (%) Mean (TF-1; 1.00E-02 microM): 82.8% | Relative cell count (%) Mean (TF-1; 1.00E-03 microM): 88.7% | Relative cell count (%) Mean (TF-1; 1.01E-04 microM): 93.1% | Relative cell count (%) Mean (TF-1; 3.16E-01 microM): 79.6% | Relative cell count (%) Mean (TF-1; 3.17E-02 microM): 81.7% | Relative cell count (%) Mean (TF-1; 3.17E-03 microM): 80.8% | Relative cell count (%) Mean (TF-1; 3.18E-04 microM): 89.0% | Relative cell count (%) Mean (TF-1; 3.18E-05 microM): 94.4% | EC50 (TF-1; [1]): > 1000 nM | GI50 (TF-1; [2]): > 1000 nM | IC50 (TF-1; [3]): > 1000 nM | Cell Count Activity Area (MES-SA): 4.81 | Relative cell count (%) Mean (MES-SA; 1.00E+00 microM): 26.6% | Relative cell count (%) Mean (MES-SA; 1.00E-01 microM): 31.4% | Relative cell count (%) Mean (MES-SA; 1.00E-02 microM): 43.5% | Relative cell count (%) Mean (MES-SA; 1.00E-03 microM): 71.1% | Relative cell count (%) Mean (MES-SA; 1.01E-04 microM): 107.7% | Relative cell count (%) Mean (MES-SA; 3.16E-01 microM): 26.5% | Relative cell count (%) Mean (MES-SA; 3.17E-02 microM): 35.6% | Relative cell count (%) Mean (MES-SA; 3.17E-03 microM): 53.2% | Relative cell count (%) Mean (MES-SA; 3.18E-04 microM): 90.9% | Relative cell count (%) Mean (MES-SA; 3.18E-05 microM): 105.0% | EC50 (MES-SA; [1]): 1.17 nM | GI50 (MES-SA; [2]): 1.96 nM | IC50 (MES-SA; [3]): 2.74 nM | Cell Count Activity Area (SNU-C2B): 2.73 | Relative cell count (%) Mean (SNU-C2B; 1.00E+00 microM): 74.9% | Relative cell count (%) Mean (SNU-C2B; 1.00E-01 microM): 76.2% | Relative cell count (%) Mean (SNU-C2B; 1.00E-02 microM): 79.1% | Relative cell count (%) Mean (SNU-C2B; 1.00E-03 microM): 74.1% | Relative cell count (%) Mean (SNU-C2B; 1.01E-04 microM): 97.1% | Relative cell count (%) Mean (SNU-C2B; 3.16E-01 microM): 66.6% | Relative cell count (%) Mean (SNU-C2B; 3.17E-02 microM): 69.5% | Relative cell count (%) Mean (SNU-C2B; 3.17E-03 microM): 76.3% | Relative cell count (%) Mean (SNU-C2B; 3.18E-04 microM): 88.6% | Relative cell count (%) Mean (SNU-C2B; 3.18E-05 microM): 106.6% | EC50 (SNU-C2B; [1]): 0.179 nM | GI50 (SNU-C2B; [2]): 3.16 nM | IC50 (SNU-C2B; [3]): > 1000 nM | Cell Count Activity Area (CRO-AP2): 4.89 | Relative cell count (%) Mean (CRO-AP2; 1.00E+00 microM): 24.8% | Relative cell count (%) Mean (CRO-AP2; 1.00E-01 microM): 27.5% | Relative cell count (%) Mean (CRO-AP2; 1.00E-02 microM): 34.9% | Relative cell count (%) Mean (CRO-AP2; 1.00E-03 microM): 65.3% | Relative cell count (%) Mean (CRO-AP2; 1.01E-04 microM): 100.6% | Relative cell count (%) Mean (CRO-AP2; 3.16E-01 microM): 24.7% | Relative cell count (%) Mean (CRO-AP2; 3.17E-02 microM): 27.0% | Relative cell count (%) Mean (CRO-AP2; 3.17E-03 microM): 47.3% | Relative cell count (%) Mean (CRO-AP2; 3.18E-04 microM): 81.8% | Relative cell count (%) Mean (CRO-AP2; 3.18E-05 microM): 98.0% | EC50 (CRO-AP2; [1]): 1.07 nM | GI50 (CRO-AP2; [2]): 1.65 nM | IC50 (CRO-AP2; [3]): 2.21 nM
